system: HEK293 cells; test: Preliminary screening as DNA vectors, GFP transfection of HEK293 cells; assay type: cell-based; conditions: amino lipid/DOPE liposome with 75 ng plasmid DNA (psin-EGFP-IRES-Puro); number of GFP-expressing cells divided by total nuclei (Hoechst)
How it was run: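 Lipid + DOPE liposomes (NaOAc, pH 5.6) complexed w/ 75 ng psin-EGFP-IRES-Puro, 30 min RT; added to 3-5×10^4 HEK293/well, 37° C. Hoechst 0.2 μg/mL at 20-24 h, imaged after further 20-24 h. Efficiency = GFP+ cells / total nuclei.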

Row | SMILES | Absolute DNA transfection efficiency in HEK293 cells [%]
1 | CCCCCCCCCCCCCCCNc1nc(NCCN2CCN(C)CC2)nc(SCCCCCCCC)n1 [S8N15 D5] | 10.4
2 | CCCCCCCCCCCCCCCCCCNc1nc(NCCCN(C)C)nc(SCCCCCC)n1 [S6N18 D6] | 21.8
3 | CCCCCCCCCNc1nc(NCCN(CC)CC)nc(SCCCCCC)n1 [S6N9 D7] | 1.1
4 | CCCCCCCCCCCCSc1nc(NCCCCCC)nc(NCCN2CCN(C)CC2)n1 [S12N6 D5] | 0.2
5 | CCCCCCCCCCCCCCCCNc1nc(NCCCN2CCOCC2)nc(SCCCCCCCCCCCC)n1 [S12N16 D8] | 0.0
6 | CCCCCCCCCCCCCCCCNc1nc(NCCCN2CCOCC2)nc(SCCCCCCCCCCCCCCCC)n1 [S16N16 D8] | 0.0
7 | CCCCCCCCCCCCSc1nc(NCCCN(C)C)nc(N(CCCCCCCCCCCC)CCCCCCCCCCCC)n1 [S12^2N12 D6] | 0.3
8 | CCCCCCCCCCCCCCSc1nc(NCCCCCCCC)nc(NCCN(CC)CC)n1 [S14N8 D7] | 1.6
9 | CCCCCCCCCCSc1nc(NCCCCCCC)nc(NCCCN2CCOCC2)n1 [S10N7 D8] | 2.6
10 | CCCCCCCCCCCCCCSc1nc(NCCCCCCCCC)nc(NCC2CCN(C)CC2)n1 [S14N9 D10] | 17.6
11 | CCCCCCCCCCCSc1nc(NCCCCCCCCC)nc(NCCN2CCN(C)CC2)n1 [S11N9 D5] | 20.5
12 | CCCCCCCCCCCNc1nc(NCCN2CCCCC2)nc(SCCCCCCCCCC)n1 [S10N11 D4] | 8.7
13 | CCCCCCCNc1nc(NCCN2CCCCC2)nc(SCCCCCC)n1 [S6N7 D4] | 1.1
14 | CCCCCCCCCCCCNc1nc(NCCN(CC)CC)nc(SCCCCCCCCCCCC)n1 [S12N12 D7] | 3.7
15 | CCCCCCCCCCCCCCCSc1nc(NCCCCCCCCCCCCC)nc(NCCN(C)C)n1 [S15N13 D1] | 0.4
16 | CCCCCCCCCSc1nc(NCCN2CCCCC2)nc(SCCCCCCCC)n1 [S8S9 D4] | 13.2
17 | CCCCCCCCCCCCCCCSc1nc(NCCCCCCCCCCCCC)nc(NCCCN2CCN(C)CC2)n1 [S15N13 D9] | 3.2
18 | CCCCCCCCCCCCCCCCCCSc1nc(NCCCCCCC)nc(NCCN2CCOCC2)n1 [S18N7 D2] | 3.2
19 | CCCCCCCCCCCCN(CCCCCCCCCCCC)c1nc(NCCN2CCCC2)nc(SCCCCCCC)n1 [S7^2N12 D3] | 0.1
20 | CCCCCCCCCCCNc1nc(NCC2CCN(C)CC2)nc(SCCCCCC)n1 [S6N11 D10] | 7.9
21 | CCCCCCCCCCCCCCCNc1nc(NCCCN(C)C)nc(SCCCCCC)n1 [S6N15 D6] | 25.9
22 | CCCCCCCCCCCNc1nc(NCCN2CCOCC2)nc(SCCCCCCCC)n1 [S8N11 D2] | 25.4
23 | CCCCCCCCCCCCSc1nc(NCCN(C)C)nc(SCCCCCCCC)n1 [S8S12 D1] | 10.7
24 | CCCCCCCCCCCCCCCCCCSc1nc(NCCN2CCN(C)CC2)nc(N(CCCCCCCCCCCC)CCCCCCCCCCCC)n1 [S18^2N12 D5] | 0.0

system: HEK293 cells; test: Preliminary screening as mRNA vectors, EGFP mRNA transfection of HEK293 cells; assay type: cell-based; conditions: EGFP mRNA 50 ng per well, 96-well plates; percentage of GFP fluorescent cells relative to total number of cells (Hoechst)
Experimental: Cell line: HEK293 cells (ATCC CRL-1573™)
Medium: DMEM supplemented with 10% fetal bovine serum (Invitrogen)
Screening: cell transfection on 96-well plates
Detection (readout): percentage of the number of GFP fluorescent cells relative to the total number of cells (the total number of cells was determined using nucleus dye Hoechst). Lipofectamine2000 (Invitrogen) was used as the positive control.
Method: the experimental method was basically the same with Example 4, and the mass of EGFP mRNA (TriLink) for transfection was 50 ng per well.

Row | SMILES | Absolute mRNA transfection efficiency in HEK293 cells [%]
25 | CCCCCCCCCCCCCCCNc1nc(NCCN2CCN(C)CC2)nc(SCCCCCCC)n1 [Compound D5S7N15] | 38.5
26 | CCCCCCCCCCCNc1nc(NCCCN(C)C)nc(SCCCCCCCCCCC)n1 [Compound D6S11N11] | 35.5
27 | CCCCCCCCCCCCCCSc1nc(NCCCCCCCCC)nc(NCCCN2CCOCC2)n1 [Compound D8S14N9] | 2.3
28 | CCCCCCCCCSc1nc(NCCCCCC)nc(NCCCN(C)C)n1 [Compound D6S9N6] | 1.4
29 | CCCCCCCCCCCCCCCCSc1nc(NCCCCCCCC)nc(NCCN2CCCC2)n1 [Compound D3S16N8] | 97.7
30 | CCCCCCCCCCCCSc1nc(NCCN2CCCCC2)nc(SCCCCCCCC)n1 [Compound D4S8S12] | 1.0
31 | CCCCCCCCCCCCCCSc1nc(NCCN(C)C)nc(SCCCCCC)n1 [Compound D1S6S14] | 0.8
32 | CCCCCCCCSc1nc(NCCN2CCCC2)nc(SCCCCCC)n1 [Compound D3S6S8] | 1.6
33 | CCCCCCCCCCCCCCCCCCSc1nc(NCCCN2CCN(C)CC2)nc(N(CCCCCCCCCCCC)CCCCCCCCCCCC)n1 [D9S18^2N12] | 0.0
34 | CCCCCCCCCCCCCCCCNc1nc(NCCN2CCCCC2)nc(SCCCCCC)n1 [Compound D4S6N16] | 0.5
35 | CCCCCCCCCCCCCCSc1nc(NCCCCCCCCCCC)nc(NCCN2CCOCC2)n1 [Compound D2S14N11] | 3.5
36 | CCCCCCCCCCSc1nc(NCCN2CCCC2)nc(SCCCCCC)n1 [Compound D3S6S10] | 2.5
37 | CCCCCCCCCCCCCCCSc1nc(NCCCCCCCCCCCCC)nc(NCCN(CC)CC)n1 [Compound D7S15N13] | 5.2
38 | CCCCCCCCCCCCCCSc1nc(NCCN2CCOCC2)nc(SCCCCCCC)n1 [Compound D2S7S14] | 11.0
39 | CCCCCCCCCSc1nc(NCCCN2CCN(C)CC2)nc(SCCCCCCCC)n1 [Compound D9S8S9] | 85.2
40 | CCCCCCCCCNc1nc(NCCN(C)C)nc(SCCCCCCC)n1 [Compound D1S7N9] | 10.0
41 | CCCCCCCCCCCCCCCCSc1nc(NCCCCCCCC)nc(NCCCN2CCOCC2)n1 [Compound D8S16N8] | 17.8
42 | CCCCCCCCCCCNc1nc(NCCN(CC)CC)nc(SCCCCCC)n1 [Compound D7S6N11] | 3.8
43 | CCCCCCCCCCCCCCCSc1nc(NCCCCCCCC)nc(NCCCN2CCOCC2)n1 [Compound D8S15N8] | 2.9
44 | CCCCCCCCCSc1nc(NCCCN(C)C)nc(SCCCCCCCC)n1 [Compound D6S8S9] | 59.9
45 | CCCCCCCCCCCCCCCCCCSc1nc(NCCCCCCCCCCCCC)nc(NCCN2CCN(C)CC2)n1 [Compound D5S18N13] | 1.4

Row | SMILES | Absolute mRNA transfection efficiency in HEK293 cells [%]
46 | CCCCCCCCCCCCCCCCCCNc1nc(NCC2CCN(C)CC2)nc(SCCCCCCCCCCCC)n1 [Compound D10S12N18] | 4.1
47 | CCCCCCCCCCCCCCCCSc1nc(NCCCN(C)C)nc(SCCCCCC)n1 [Compound D6S6S16] | 34.4
48 | CCCCCCCCCCCCCCCCCCSc1nc(NCCCCCCCCC)nc(NCCN2CCOCC2)n1 [Compound D2S18N9] | 0.4
49 | CCCCCCCCCCCCCCCCCCSc1nc(NCCCCCC)nc(NCCCN2CCN(C)CC2)n1 [Compound D9S18N6] | 55.4
50 | CCCCCCCCCCCCSc1nc(NCCN2CCOCC2)nc(N(CCCCCCCCCCCC)CCCCCCCCCCCC)n1 [D2S12^2N12] | 0.1
51 | CCCCCCCCCCCCCCCNc1nc(NCCN2CCN(C)CC2)nc(SCCCCCCCCCCCCCCC)n1 [Compound D5S15N15] | 0.7
52 | CCCCCCCCCCCCCCCCNc1nc(NCCN(CC)CC)nc(SCCCCCCCCCCCCCCCC)n1 [Compound D7S16N16] | 1.6
53 | CCCCCCCCCCCCCCCCCCNc1nc(NCC2CCN(C)CC2)nc(SCCCCCCCCCCCCCCC)n1 [Compound D10S15N18] | 4.2
54 | CCCCCCCCCCCCCNc1nc(NCCN2CCCCC2)nc(SCCCCCCC)n1 [Compound D4S7N13] | 0.7
55 | CCCCCCCCCCCCCCCNc1nc(NCCN2CCCCC2)nc(SCCCCCC)n1 [Compound D4S6N15] | 0.4
56 | CCCCCCCCCCCCN(CCCCCCCCCCCC)c1nc(NCCN2CCN(C)CC2)nc(SCCCCCC)n1 [D5S6^2N12] | 0.3
57 | CCCCCCCCCSc1nc(NCCN2CCN(C)CC2)nc(SCCCCCCCC)n1 [Compound D5S8S9] | 36.1
58 | CCCCCCCSc1nc(NCCCN(C)C)nc(SCCCCCC)n1 [Compound D6S6S7] | 11.3
59 | CCCCCCCCCCCCCCSc1nc(NCCCN2CCN(C)CC2)nc(SCCCCCC)n1 [Compound D9S6S14] | 35.8
60 | CCCCCCCCCCCCCNc1nc(NCCN2CCOCC2)nc(SCCCCCCCCC)n1 [Compound D2S9N13] | 12.3
61 | CCCCCCCNc1nc(NCCN2CCCC2)nc(SCCCCCC)n1 [Compound D3S6N7] | 0.2
62 | CCCCCCCCCCCCCCCCCCSc1nc(NCCCCCCCCCCC)nc(NCCCN2CCN(C)CC2)n1 [Compound D9S18N11] | 4.3
63 | CCCCCCCCCCCSc1nc(NCCCCCCCCC)nc(NCCN(CC)CC)n1 [Compound D7S11N9] | 5.0
64 | CCCCCCCCCCCCCCCCSc1nc(NCC2CCN(C)CC2)nc(SCCCCCCC)n1 [Compound D10S7S16] | 73.7
65 | CCCCCCCCCCCCCCCNc1nc(NCC2CCN(C)CC2)nc(SCCCCCCC)n1 [Compound D10S7N15] | 67.3
